Assay results reported in paper PMC3757248, “Antiestrogen-binding site ligands induce autophagy in myeloma cells that proceeds through alteration of cholesterol metabolism” (Oncotarget, 2013).
Like-named read-outs stand apart in the source and are kept apart here.

Legend:
RPMI 8226 and LP-1 cells = test: Cell viability, MTT assay; type: cell-based, human; settings: for sensitivity to dexamethasone (MTT assay): 10 μM dexamethasone 24 h, RU 39411 10 μM for 2 h before; for cell death (viable cells, MTT assay): 1 μM LY 294002, 10 nM everolimus, 10 μM RU 39411, 40 μM PBPE
Protocol: RPMI 8226 were obtained from R Bataille (CLCC, Nantes, France) and LP-1 cells from D Bouscary (Institut Cochin, Paris, France). At their arrival, the identity of cells was checked by karyotyping and surface markers expression; cells were then amplified and frozen. HMCLs were maintained in RPMI 1640 medium (Lonza, Basel, Switzerland) supplemented with 2 mM L-glutamine (Lonza) and 10% FCS (fetal calf serum) (PAA Laboratories, Velizy-Villacoublay, France). In experiments with AEs, cells were cultured in phenol red-free medium plus FCS. AEs were dissolved in ethanol (EtOH) to obtain 10 mM stock solution and then diluted into medium immediately before use. For controls, vehicle was added at the same final concentration. Cell viability was determined using CellTiter 96® AQueous One Solution (MTT [([3]-([4],[5])-dimethylthiazol-[2]-yl)-[2],[5]-diphenyltetrazolium bromide] assay, Promega, Charbonnières, France) according to the supplier's instructions.

LP-1 = test system: LP-1; design: method as in earlier work; settings: cited from earlier work
NCI-H929 = test system: NCI-H929; design: method as in earlier work; settings: cited from earlier work
OPM-2 = test system: OPM-2; design: method as in earlier work; settings: cited from earlier work
RPMI 8226 = test system: RPMI 8226; design: method as in earlier work; settings: cited from earlier work
LP-1 cells [1] = test: Sterols accumulated in cells, HPLC and GC/MS; type: cell-based, human; settings: LP1, 48 h incubation
Protocol: (§1) The organic layer was reduced to dryness under a flux of argon and the residue was resuspended in ethanol. Sterols were analyzed by liquid chromatography and gas-liquid chromatography as described before. Neutral lipids and sphingomyelin analyses were done according to previously published procedures.

RPMI 8226 cells [2] = test: Sterols accumulated in cells, HPLC and GC/MS; type: cell-based, human; settings: RPMI 8226, 48 h incubation
Protocol: as §1

RPMI 8226 cells [3] = test: Electron microscopy for MLBs, AVs and UVs; type: cell-based, human; settings: 48 h, 10 μM drug (PBPE 40 μM)
LP-1 cells [4] = test: Electron microscopy for MLBs, AVs and UVs; type: cell-based, human; settings: 48 h, 10 μM drug (PBPE 40 μM)
LP-1 cells [5] = test: Presence of 5,6-EC in cells by GC/MS; type: cell-based, human; settings: 48 h, 10 μM drug (PBPE 40 μM)
Protocol: as §1

RPMI 8226 cells [6] = test: Presence of 5,6-EC in cells by GC/MS; type: cell-based, human; settings: 48 h, 10 μM drug (PBPE 40 μM)
Protocol: as §1

HMCLs = test: Free sterol accumulation in HMCLs; type: cell-based, human
Protocol: as §1

AEBS [7] = target: T1, AEBS (Homo sapiens, UniProt Q15125+Q9UBM7); test: Binding to the AEBS in HMCLs; design: endogenous in cells; host or cells: RPMI 8226 and LP-1 human multiple myeloma cell lines
ChEH [8] = target: T2, ChEH (Homo sapiens, UniProt Q15125+Q9UBM7); test: ChEH activity in HMCLs (TLC); type: cell-based; design: endogenous in cells; host or cells: RPMI 8226 and LP-1 human multiple myeloma cell lines; settings: OHT, Tam, RU 58668 10 μM, PBPE 40 μM
From the text: (§2) Cells were then pelleted and extracted with chloroform/methanol (2/1). The organic layer was reduced to dryness under a flux of argon and the residue was resuspended in EtOH. Samples were applied to thin layer chromatography (TLC) plates and developed using ethyl acetate as previously described. The radioactive metabolites were visualized by autoradiography using Kodak Biomax MS films.

AEBS [9] = target: T1, AEBS; test: Binding to the AEBS in RPMI 8226
AEBS [10] = target: T1, AEBS; test: Binding to the AEBS in LP1; design: endogenous in cells; host or cells: LP-1 human multiple myeloma cell lines
ChEH [11] = target: T2, ChEH; test: ChEH activity measured on intact cells; type: cell-based; design: endogenous in cells; host or cells: LP-1 human multiple myeloma cell lines; settings: LP-1 intact cells, [14C]-5,6-EC 0.6 μM, drugs 1 nM to 10 μM over 24 h; read-out: ChEH IC50
From the text: as §2

ChEH [12] = target: T2, ChEH; test: ChEH activity measured on intact cells; type: cell-based; design: endogenous in cells; host or cells: RPMI 8226 human multiple myeloma cell lines; settings: RPMI 8226 intact cells, [14C]-5,6-EC 0.6 μM, drugs 1 nM to 10 μM over 24 h; read-out: ChEH IC50
From the text: as §2

[13] = RPMI 8226, presence of 500 μM Vit E

T1 sequence (Q15125 whole entry): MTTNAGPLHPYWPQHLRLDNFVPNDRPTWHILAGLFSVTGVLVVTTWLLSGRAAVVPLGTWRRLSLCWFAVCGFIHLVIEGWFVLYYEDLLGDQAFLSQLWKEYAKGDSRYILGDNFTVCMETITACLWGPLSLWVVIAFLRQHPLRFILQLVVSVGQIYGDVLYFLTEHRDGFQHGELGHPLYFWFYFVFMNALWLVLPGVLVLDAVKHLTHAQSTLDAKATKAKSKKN
T1 sequence (Q9UBM7 whole entry): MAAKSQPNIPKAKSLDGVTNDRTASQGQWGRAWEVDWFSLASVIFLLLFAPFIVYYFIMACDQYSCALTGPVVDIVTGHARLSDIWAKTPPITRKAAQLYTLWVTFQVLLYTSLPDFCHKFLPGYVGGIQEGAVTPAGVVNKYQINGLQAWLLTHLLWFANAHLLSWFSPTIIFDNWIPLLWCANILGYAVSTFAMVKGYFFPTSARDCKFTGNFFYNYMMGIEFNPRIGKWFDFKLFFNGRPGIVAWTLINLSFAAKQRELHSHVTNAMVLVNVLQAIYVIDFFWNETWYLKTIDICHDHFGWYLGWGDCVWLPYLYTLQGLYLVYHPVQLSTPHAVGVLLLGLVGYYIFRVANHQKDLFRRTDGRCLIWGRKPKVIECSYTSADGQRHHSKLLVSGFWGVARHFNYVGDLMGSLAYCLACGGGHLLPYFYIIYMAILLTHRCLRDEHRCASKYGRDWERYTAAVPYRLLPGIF
T2 sequence (Q15125 whole entry): as the sequence (Q15125 whole entry) above
T2 sequence (Q9UBM7 whole entry): as the sequence (Q9UBM7 whole entry) above

Row | SMILES | sensitivity to dexamethasone (MTT assay) (RPMI 8226 and LP-1 cells) | Desmosterol (LP-1 cells [1]) | Zymostenol (LP-1 cells [1]) | Desmosterol (RPMI 8226 cells [2]) | Zymostenol (RPMI 8226 cells [2]) | AV (RPMI 8226 cells [3]; RPMI 8226, absence of Vit E) | MLB (RPMI 8226 cells [3]; RPMI 8226, absence of Vit E) | UV (RPMI 8226 cells [3]; RPMI 8226, absence of Vit E) | AV (RPMI 8226 cells [3]; [13]) | MLB (RPMI 8226 cells [3]; [13]) | UV (RPMI 8226 cells [3]; [13]) | AV (LP-1 cells [4]; LP-1, absence of Vit E) | MLB (LP-1 cells [4]; LP-1, absence of Vit E) | UV (LP-1 cells [4]; LP-1, absence of Vit E) | AV (LP-1 cells [4]; LP-1, presence of 500 μM Vit E) | MLB (LP-1 cells [4]; LP-1, presence of 500 μM Vit E) | UV (LP-1 cells [4]; LP-1, presence of 500 μM Vit E) | 5,6-EC (LP-1 cells [5]; LP-1, absence of Vit E) | 5,6-EC (LP-1 cells [5]; LP-1, presence of 500 μM Vit E) | cell death (viable cells, MTT assay) (RPMI 8226 and LP-1 cells) | also measured
1 | C[C@@H]1C[C@H]2[C@@H]3CCC4=CC(=O)C=C[C@]4(C)[C@@]3(F)[C@@H](O)C[C@]2(C)[C@@]1(O)C(=O)CO [dexamethasone] | resistant |  |  |  |  |  |  |  |  |  |  |  |  |  |  |  |  |  |  |  | 
2 | C[C@]12CC[C@@H]3c4ccc(O)cc4C[C@@H](CCCCCCCCC[S+]([O-])CCCC(F)(F)C(F)(F)F)[C@H]3[C@@H]1CC[C@@H]2O (stereo partly shown) [Fulvestrant] |  |  |  |  |  |  |  |  |  |  |  |  |  |  |  |  |  |  |  |  | SERM and SERDs effects on MM cell lines (LP-1): G1-arrest; SERM and SERDs effects on MM cell lines (NCI-H929): Apoptosis; SERM and SERDs effects on MM cell lines (OPM-2): G1-arrest; SERM and SERDs effects on MM cell lines (RPMI 8226): Apoptosis
3 | CC/C(=C(\c1ccccc1)c1ccc(OCCN(C)C)cc1)c1ccccc1 [Tam, Tamoxifen] |  | 0.2 percent by the weight of total sterol | 38.2 percent by the weight of total sterol | 0.2 percent by the weight of total sterol | 35.9 percent by the weight of total sterol | + + (The sign + means that 80 % cells were positive and contained at least 5 vesicles) | + + (The sign + means that 80 % cells were positive and contained at least 5 vesicles) | + (The sign + means that 80 % cells were positive and contained at least 5 vesicles) | + + (The sign + means that 80 % cells were positive and contained at least 5 vesicles) | + + (The sign + means that 80 % cells were positive and contained at least 5 vesicles) | − (otherwise they were considered as negative (-)) | + + (The sign + means that 80 % cells were positive and contained at least 5 vesicles) | + + (The sign + means that 80 % cells were positive and contained at least 5 vesicles) | + (The sign + means that 80 % cells were positive and contained at least 5 vesicles) | + + (The sign + means that 80 % cells were positive and contained at least 5 vesicles) | + + (The sign + means that 80 % cells were positive and contained at least 5 vesicles) | − (otherwise they were considered as negative (-)) | + | − |  | 5,6-EC (RPMI 8226 cells [6]; RPMI 8226, absence of Vit E): +; 5,6-EC (RPMI 8226 cells [6]; [13]): −; free sterol accumulated (HMCLs): accumulation zymostenol; affinity for the AEBS (AEBS [7]): high affinity; ChEH activity, conversion of 5,6-EC into CT by TLC (ChEH [8]): ChEH activity was inhibited
4 | CO[C@H]1C[C@@H]2CC[C@@H](C)[C@@](O)(O2)C(=O)C(=O)N2CCCC[C@H]2C(=O)O[C@H]([C@H](C)C[C@@H]2CC[C@@H](OCCO)[C@H](OC)C2)CC(=O)[C@H](C)/C=C(\C)[C@@H](O)[C@@H](OC)C(=O)[C@H](C)C[C@H](C)/C=C/C=C/C=C/1C [everolimus] |  |  |  |  |  |  |  |  |  |  |  |  |  |  |  |  |  |  |  | induced cell death | 
5 | CN(C)CCOc1ccc([C@H]2C[C@]3(C)[C@@H](O)CC[C@H]3[C@@H]3CCc4cc(O)ccc4[C@H]32)cc1 [RU 39411, 11β-(4-(2-(dimethylamino)-ethoxy)-phenyl)estra-1,3,5(10)-triene-3,17β-diol] | restores the sensitivity | 46.4 percent by the weight of total sterol | 1.7 percent by the weight of total sterol | 41.5 percent by the weight of total sterol | 1.8 percent by the weight of total sterol | + + (The sign + means that 80 % cells were positive and contained at least 5 vesicles) | + + (The sign + means that 80 % cells were positive and contained at least 5 vesicles) | + (The sign + means that 80 % cells were positive and contained at least 5 vesicles) | + + (The sign + means that 80 % cells were positive and contained at least 5 vesicles) | + + (The sign + means that 80 % cells were positive and contained at least 5 vesicles) | − (otherwise they were considered as negative (-)) | + + (The sign + means that 80 % cells were positive and contained at least 5 vesicles) | + + (The sign + means that 80 % cells were positive and contained at least 5 vesicles) | + (The sign + means that 80 % cells were positive and contained at least 5 vesicles) | + + (The sign + means that 80 % cells were positive and contained at least 5 vesicles) | + + (The sign + means that 80 % cells were positive and contained at least 5 vesicles) | − (otherwise they were considered as negative (-)) | + | − | cell death that was strictly caspase-independent | Ki (AEBS [9]): 29.4 ± 5.5 nM; 5,6-EC (RPMI 8226 cells [6]; RPMI 8226, absence of Vit E): +; 5,6-EC (RPMI 8226 cells [6]; [13]): −; free sterol accumulated (HMCLs): accumulation of desmosterol; Ki (AEBS [10]): 27.4 ± 3.1 nM; IC50 (ChEH [11]): 727 ± 31 nM; IC50 (ChEH [12]): 632 ± 22 nM; affinity for the AEBS (AEBS [7]): high affinity
6 | O=c1cc(N2CCOCC2)oc2c(-c3ccccc3)cccc12 [LY 294002] |  |  |  |  |  |  |  |  |  |  |  |  |  |  |  |  |  |  |  | induced cell death | 
